The structures appear in SMILES notation. ≈ marks a conversion by molar mass, not a printed value. Where two headings read alike, the source gives them in different places.

Data set [1] can be described thus: Antimicrobial activity of decomposition product. It is filed as cell-based. An excerpt:
It has also been discovered that the compounds of the present invention may degrade at a pH of 7 or above over an extended time period to compounds which are less antimicrobially active than the original compounds of the present invention.

The test system of another data set is Fusarium oxysporum (Fo). The experiment in a line: MIC in malt yeast agar, Fusarium oxysporum. It is filed as cell-based, Fusarium oxysporum ATCC 48112. As to conditions: read-out: Minimum Inhibitory Concentration, Fo. Here is the method:
(§1) The minimum inhibitory concentration (MIC) for the compounds listed in Table I is determined for 9 bacteria, using nutrient agar, and 7 yeast and fungi, using malt yeast agar. A one percent solution of the test compound is prepared in a mixture of acetone and water. Nutrient agar is prepared at pH 6.8, representing a neutral medium, and at pH 8.2, representing an alkaline medium. The nutrient agars are prepared by adding 23 g of nutrient agar to one-liter of deionized water. In addition, the alkaline medium is prepared by adjusting a 0.04M solution of N-[tris-(hydroxymethyl)methyl]-glycine buffered deionized water with concentrated sodium hydroxide to a pH of […]. Malt yeast agar is prepared by adding 3 g yeast extract and 45 g malt agar per liter of deionized water. The specific agar is dispensed in 30 ml aliquots into 25×200 mm test tubes, capped and autoclaved for 15 minutes at 115° C. The test tubes containing the agar are cooled in a water bath until the temperature of the agar is 48° C. Then, an appropriate amount of the one percent solution of the test compound is added (except in the controls where no compound is added) to the respective test tubes so that the final concentrations are 500, 250, 100, 50, 25, 10, 5, 2.5, 1.0 and zero parts per million of the test compound in the agar, thus having a known concentration of test compound dispersed therein. The contents of the test tubes are then transferred to respective petri plates. After drying for 24 hours, the petri plates containing nutrient agar are inoculated with bacteria and those containing malt yeast agar are inoculated with yeast and fungi.
(§2) The inoculation with the yeast and fungi is accomplished as follows. Cultures of yeast and fungi are incubated for seven days on malt yeast agar at 30° C. These cultures are used to prepare suspensions by the following procedure. A suspension of each organism is prepared by adding 10 ml of sterile saline and 10 microliters of octylphenoxy polyethoxy ethanol (TRITON® X-100, a trademark of Rohm & Haas Company) to the agar slant of yeast or fungi. The sterile saline/octylphenoxy polyethoxy ethanol solution is then agitated with a sterile swab to suspend the microorganism grown on the slant. Each resulting suspension is diluted into sterile saline (1 part suspension: 9 parts sterile saline). Aliquots of these dilutions are placed in individual wells of Steer's Replicator and petri plates inoculated as previously described. The petri plates are incubated at 30° C. and read after 48 hours for yeast and 72 hours for fungi.
(§3) Table II lists the bacteria, yeast and fungi used in the MIC test described above along with their respective American Type Culture Collection (ATCC) identification numbers.
(§4) The following MIC and MEC antimicrobial tests, whose results are shown in Tables XIII-XVII, are performed using the same methods as described hereinabove.

Data set [2] has as its system Aureobasidium pullulan (Ap). The experiment in a line: MIC in malt yeast agar, Aureobasidium pullulan. It is filed as cell-based, Aureobasidium pullulan ATCC 16622. Particulars: read-out: Minimum Inhibitory Concentration, Ap. The method, then:
as §1, §2, §3, §4

For data set [3], the system named is Penicillium chrysogenum (Pc). The data set is described as follows: MIC in malt yeast agar, Penicillium chrysogenum. It is filed as cell-based, Penicillium chrysogenum ATCC 9480. Particulars: read-out: Minimum Inhibitory Concentration, Pc. Here is the method: as §1, §2, §3, §4
Data set [4] deals with Klebsiella pneumoniae (Kp). The data set is described as follows: MIC in nutrient agar, Klebsiella pneumoniae. It is filed as cell-based, Klebsiella pneumoniae ATCC 8308. Here is the method: as §1
(§5) The inoculation with bacteria is accomplished by using the following procedure. Twenty-four hour-cultures of each of the bacteria are prepared by incubating the respective bacteria in tubes containing nutrient broth for 24 hours at 30° C. in a shaker. Dilutions of each of the 24 hour-cultures are made so that nine separate suspensions (one for each of the nine test bacteria) are made, each containing 10^8 colony forming units (CFU) per ml of suspension of a particular bacteria. Aliquots of 0.3 ml of each of the bacterial suspensions are used to fill the individual wells of Steer's Replicator. For each microbial suspension, 0.3 ml was used to fill three wells (i.e., three wells of 0.3 ml each) so that for the nine different bacteria, 27 wells are filled. The Steer's Replicator is then used to inoculate both the neutral and alkaline pH nutrient agar petri plates.
(§6) The inoculated petri plates are incubated at 30° C. for 48 hours and then read to determine if the test compound which is incorporated into the agar prevented growth of the respective bacteria.
as §3, §4

In the next data set the test system is Escherichia coli (Ec). The experiment in a line: MIC in nutrient agar, Escherichia coli. It is filed as cell-based, Escherichia coli ATCC 11229. Particulars: Escherichia coli. Here is the method:
as §1, §5, §6, §3, §4

Data set [5] relates to Salmonella choleraesuis (Sc). The experiment in a line: MIC in nutrient agar, Salmonella choleraesuis. It is filed as cell-based, Salmonella choleraesuis ATCC 10708. Particulars: Salmonella enterica, CHOLERAESUIS
The method, then:
as §1, §5, §6, §3, §4

In another data set the test system is Candida albicans (Ca). The experiment in a line: MIC in malt yeast agar, Candida albicans. It is filed as cell-based, Candida albicans ATCC 10231. Particulars: read-out: Minimum Inhibitory Concentration, Ca. Here is the method:
as §1, §2, §3, §4

The test system of another data set is Trichoderma viride (Tv). The data set is described as follows: MIC in malt yeast agar, Trichoderma viride. It is filed as cell-based, Trichoderma viride ATCC 8678. As to conditions: read-out: Minimum Inhibitory Concentration, Tv. Here is the method:
as §1, §2, §3, §4

A further data set has as its system Bacteria Species. The experiment in a line: MIC test in bacteria species, comparison over the organisms of Table XIV. It is filed as cell-based, bacteria listed in Table II. Particulars: pH 8.2. The method, then: The minimum inhibitory concentration (MIC) for the compounds listed in Table I is determined for 9 bacteria, using nutrient agar, and 7 yeast and fungi, using malt yeast agar. A one percent solution of the test compound is prepared in a mixture of acetone and water. Nutrient agar is prepared at pH 6.8, representing a neutral medium, and at pH 8.2, representing an alkaline medium. The nutrient agars are prepared by adding 23 g of nutrient agar to one-liter of deionized water. In addition, the alkaline medium is prepared by adjusting a 0.04M solution of N-[tris-(hydroxymethyl)methyl]-glycine buffered deionized water with concentrated sodium hydroxide to a pH of […]. Malt yeast agar is prepared by adding 3 g yeast extract and 45 g malt agar per liter of deionized water. The specific agar is dispensed in 30 ml aliquots into 25×200 mm test tubes, capped and autoclaved for 15 minutes at 115° C. The test tubes containing the agar are cooled in a water bath until the temperature of the agar is 48° C. […]
The inoculated petri plates are incubated at 30° C. for 48 hours and then read to determine if the test compound which is incorporated into the agar prevented growth of the respective bacteria. […]

The next data set concerns Aspergillus niger (An). The experiment in a line: MIC in malt yeast agar, Aspergillus niger. It is filed as cell-based, Aspergillus niger ATCC 16404. As to conditions: read-out: Minimum Inhibitory Concentration, An. Here is the method:
as §1, §2, §3, §4

A further data set has as its system Proteus vulgaris (Pv). The data set is described as follows: MIC in nutrient agar, Proteus vulgaris. It is filed as cell-based, Proteus vulgaris ATCC 881. The method, then: as §1, §5, §6, §3, §4
Data set [6] deals with Pseudomonas aeruginosa (Pa). The experiment in a line: MIC in nutrient agar, Pseudomonas aeruginosa. It is filed as cell-based, Pseudomonas aeruginosa ATCC 10145. The method, then: as §1, §5, §6, §3, §4
A short description of data set [7]: Degradation of Z isomer to 3-methylthio-2-propynenitrile. It is filed as physicochemical. An excerpt:
It has also been discovered that the Z isomer of an appropriately-substituted 2-chloro-3-thio-2-propenenitrile precursor may degrade in situ to a like-substituted 3-thio-2-propynenitrile.

The next data set concerns Bacillus subtilis (Bs). The data set is described as follows: MIC in nutrient agar, Bacillus subtilis. It is filed as cell-based, Bacillus subtilis ATCC 8473. As to conditions: Bacillus subtilis. The method, then:
as §1, §5, §6, §3, §4

The subject of data set [8] is Saccharomyces cerevisiae (Sc). The data set is described as follows: MIC in malt yeast agar, Saccharomyces cerevisiae. It is filed as cell-based, Saccharomyces cerevisiae ATCC 4105. As to conditions: read-out: Minimum Inhibitory Concentration, Sc. The method, then: as §1, §2, §3, §4
Data set [9] deals with Enterobacter aerogenes (Ea). The experiment in a line: MIC in nutrient agar, Enterobacter aerogenes. It is filed as cell-based, Enterobacter aerogenes ATCC 13048. As to conditions: Klebsiella aerogenes. Here is the method: as §1, §5, §6, §3, §4
Data set [10] concerns Pseudomonas aeruginosa (PRD-10). The data set is described as follows: MIC in nutrient agar, Pseudomonas aeruginosa PRD-10. It is filed as cell-based, Pseudomonas aeruginosa ATCC 15442. As to conditions: Pseudomonas aeruginosa. The method, then:
as §1, §5, §6, §3, §4

The subject of data set [11] is Staphylococcus aureus (Sa). The experiment in a line: MIC in nutrient agar, Staphylococcus aureus. It is filed as cell-based, Staphylococcus aureus ATCC 6538. Particulars: Staphylococcus aureus. Here is the method: as §1, §5, §6, §3, §4

`CSC(=CC#N)SC` [3,3-bis(methylthio)propenenitrile]: in [1], the “antimicrobial activity of decomposition product” value was “virtually inactive as an antimicrobial”.

For `CS/C=C(\Cl)C#N` [Compound I, Z isomer of 2-chloro-3-(methylthio)-2-propenenitrile], the MIC is 100 µg/mL (≈ 748 µM) in the data set with Fusarium oxysporum (Fo); 50 µg/mL (≈ 374 µM) in data set [2]; 50 µg/mL (≈ 374 µM) in [3]; 50 µg/mL (≈ 374 µM) in [4] (pH 6.8, read-out: Minimum Inhibitory Concentration, Kp); 10 µg/mL (≈ 74.8 µM) in [4] (pH 8.2, read-out: Minimum Inhibitory Concentration, Kp); 50 µg/mL (≈ 374 µM) in the data set on Escherichia coli (Ec) (pH 6.8, read-out: Minimum Inhibitory Concentration, Ec). Further, the MIC in the data set on Escherichia coli (Ec) (pH 8.2, read-out: Minimum Inhibitory Concentration, Ec) turned out to be 10 µg/mL (≈ 74.8 µM); in data set [5] (pH 6.8, read-out: Minimum Inhibitory Concentration, Sc) it was 50 µg/mL (≈ 374 µM); in [5] (pH 8.2, read-out: Minimum Inhibitory Concentration, Sc), 10 µg/mL (≈ 74.8 µM); in the data set on Candida albicans (Ca) it was 100 µg/mL (≈ 748 µM); in the data set with Trichoderma viride (Tv), 50 µg/mL (≈ 374 µM); with Aspergillus niger (An), 50 µg/mL (≈ 374 µM). The MIC in the data set with Proteus vulgaris (Pv) (pH 6.8, read-out: Minimum Inhibitory Concentration, Pv) was found to be 50 µg/mL (≈ 374 µM); in the data set on Proteus vulgaris (Pv) (pH 8.2, read-out: Minimum Inhibitory Concentration, Pv), 5 µg/mL (≈ 37.4 µM); in data set [6] (pH 6.8, read-out: Minimum Inhibitory Concentration, Pa), 50 µg/mL (≈ 374 µM); in [6] (pH 8.2, read-out: Minimum Inhibitory Concentration, Pa) it was 10 µg/mL (≈ 74.8 µM); with Bacillus subtilis (Bs) (pH 6.8, read-out: Minimum Inhibitory Concentration, Bs), 50 µg/mL (≈ 374 µM); with Bacillus subtilis (Bs) (pH 8.2, read-out: Minimum Inhibitory Concentration, Bs) it was 10 µg/mL (≈ 74.8 µM). For the same molecule, the MIC in data set [8] was found to be 100 µg/mL (≈ 748 µM); in data set [9] (pH 6.8, read-out: Minimum Inhibitory Concentration, Ea), 50 µg/mL (≈ 374 µM); in data set [9] (pH 8.2, read-out: Minimum Inhibitory Concentration, Ea) it was 10 µg/mL (≈ 74.8 µM); in [10] (pH 6.8, read-out: Minimum Inhibitory Concentration, PRD), 50 µg/mL (≈ 374 µM); in data set [10] (pH 8.2, read-out: Minimum Inhibitory Concentration, PRD), 10 µg/mL (≈ 74.8 µM); in data set [11] (pH 6.8, read-out: Minimum Inhibitory Concentration, Sa) it was 50 µg/mL (≈ 374 µM). Moreover, the MIC in [11] (pH 8.2, read-out: Minimum Inhibitory Concentration, Sa) came to 10 µg/mL (≈ 74.8 µM). For the same molecule, in the data set on Bacteria Species, the “antimicrobial activity compared with 3-methylthio-2-propynenitrile (Compound A)” value is listed as “essentially equivalent”. The “antimicrobial activity relative to the E isomer (Compound H)” value in the data set with Bacteria Species is reported as 25-50 times greater. Further, the “half-life for the degradation of the Z isomer to 3-methylthio-2-propynenitrile” value in data set [7] (pH 7) and in [7] (pH 9) was “approximately two” in each case.
